According to patent US8247211B2, “Glycopeptide antibiotics” (American Cyanamid Company, priority 2001, dated 2012):

Key:
Test in all cases: In vitro antibacterial evaluation: minimum inhibitory concentration (MIC), broth dilution method
Assay type in all cases: cell-based
Enterococcus sp. = test system: Enterococcus sp.
In short: (§1)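 Using Muller-Hinton II […] and an inoculum of 5×10^5 CFU/mL, antibiotic dilutions from 64 down to 0.06 μg/mL were tested following NCCLS M7-A2. The MIC is the lowest concentration inhibiting growth, including in methicillin-, penicillin- or vancomycin-resistant clinical isolates.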

Escherichia coli = test system: Escherichia coli
In short: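 First, organisms are seeded at 5×10^5 CFU/mL into Muller-Hinton II […]. Next, antibiotic is applied across 64-0.06 μg/mL by broth dilution (NCCLS M7-A2). Finally, the lowest inhibitory concentration is recorded as MIC.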

Staphylococcus sp. = conditions: for MIC Staphylococcus aureus (ATCC 29213) / MIC Staphylococcus aureus (GC 1131) / MIC Staphylococcus aureus (GC 3051) / MIC Staphylococcus aureus (GC 3053) / MIC Staphylococcus aureus (GC 4541) / MIC Staphylococcus aureus (GC 4542) / MIC Staphylococcus aureus (GC 4544) / MIC Staphylococcus aureus (GC 4545): broth dilution, 18 hours at 35° C.
In short: as §1

Streptococcus sp. = test system: Streptococcus sp.
In short: as §1

[1] = broth dilution, inoculum 5×10^5 CFU/mL, 18 hours at 35° C.

CC(c1ccccc1)C1NC(=O)CNC(=O)C(CO)NC(=O)C(C(O)C2CNC(=N)N2C2OC(CO)C(O)C(O)C2O)NC(=O)C(C(O)C2CNC(=N)N2)NC(=O)C(Cc2ccc(OC3OC(CO)C(OC4OC5COC(c6ccc(Oc7ccc(C(C)(C)C)cc7)cc6)OC5C(O)C4O)C(O)C3O)cc2)NC1=O (stereo not drawn) [Example 181, Cyclo[glycyl-β-methylphenylalanyl-O-[4-O-[4,6-O-[4-(4-tert-butylphenoxy)benzylidene]hexopyranosyl]hexopyranosyl]tyrosyl-3-(2-iminoimidazolidin-4-yl)seryl-3-(3-hexopyranosyl-2-iminoimidazolidin-4-yl)serylseryl]]
2 µg/mL: MIC Enterococcus faecalis (ATCC 29212) (Enterococcus sp.; [1]) | MIC Enterococcus faecalis (GC 2242) (Enterococcus sp.; [1]) | MIC Enterococcus faecalis (GC 4552) (Enterococcus sp.; [1]) | MIC Enterococcus faecalis (GC 4554) (Enterococcus sp.; [1]) | MIC Enterococcus faecalis (GC 6189) (Enterococcus sp.; [1]) | MIC Enterococcus faecium (GC 2243) (Enterococcus sp.; [1]) | MIC Enterococcus faecalis (ATCC 29212) (Enterococcus sp.; strain ATCC 29212) | MIC Enterococcus faecalis (GC 2242) (Enterococcus sp.; strain GC 2242) | MIC Enterococcus faecium (GC 2243) (Enterococcus sp.; strain GC 2243) | MIC Enterococcus faecalis (GC 4552) (Enterococcus sp.; strain GC 4552) | MIC Enterococcus faecalis (GC 4554) (Enterococcus sp.; strain GC 4554) | MIC Enterococcus faecalis (GC 6189) (Enterococcus sp.; strain GC 6189) | MIC Coagulase Negative Staphylococcus (GC 4548) (Staphylococcus sp.; strain GC 4548) | MIC Coagulase Negative Staphylococcus (GC 4551) (Staphylococcus sp.; strain GC 4551) | MIC Coagulase Negative Staphylococcus (GC 6257) (Staphylococcus sp.; strain GC 6257)
4 µg/mL: MIC Enterococcus avium (GC 4558) (Enterococcus sp.; [1]) | MIC Enterococcus faecalis (GC 2691) (Enterococcus sp.; [1]) | MIC Enterococcus faecalis (GC 3059) (Enterococcus sp.; [1]) | MIC Enterococcus faecium (GC 4556) (Enterococcus sp.; [1]) | MIC Enterococcus faecium (GC 4557) (Enterococcus sp.; [1]) | MIC Enterococcus faecalis (GC 2691) (Enterococcus sp.; strain GC 2691) | MIC Enterococcus faecalis (GC 3059) (Enterococcus sp.; strain GC 3059) | MIC Enterococcus faecium (GC 4556) (Enterococcus sp.; strain GC 4556) | MIC Enterococcus faecium (GC 4557) (Enterococcus sp.; strain GC 4557) | MIC Enterococcus avium (GC 4558) (Enterococcus sp.; strain GC 4558) | MIC Staphylococcus aureus (ATCC 29213) (Staphylococcus sp.; 5×10^5 CFU/mL) | MIC Staphylococcus aureus (GC 1131) (Staphylococcus sp.; 5×10^5 CFU/mL) | MIC Staphylococcus aureus (GC 3051) (Staphylococcus sp.; 5×10^5 CFU/mL) | MIC Staphylococcus aureus (GC 3053) (Staphylococcus sp.; 5×10^5 CFU/mL) | MIC Staphylococcus aureus (GC 4541) (Staphylococcus sp.; 5×10^5 CFU/mL) | MIC Staphylococcus aureus (GC 4542) (Staphylococcus sp.; 5×10^5 CFU/mL) | MIC Staphylococcus aureus (GC 4544) (Staphylococcus sp.; 5×10^5 CFU/mL) | MIC Staphylococcus aureus (GC 4545) (Staphylococcus sp.; 5×10^5 CFU/mL) | MIC Staphylococcus aureus (ATCC 29213) (Staphylococcus sp.; strain ATCC 29213) | MIC Staphylococcus aureus (GC 1131) (Staphylococcus sp.; strain GC 1131) | MIC Staphylococcus aureus (GC 3051) (Staphylococcus sp.; strain GC 3051) | MIC Staphylococcus aureus (GC 3053) (Staphylococcus sp.; strain GC 3053) | MIC Staphylococcus aureus (GC 4541) (Staphylococcus sp.; strain GC 4541) | MIC Staphylococcus aureus (GC 4542) (Staphylococcus sp.; strain GC 4542) | MIC Staphylococcus aureus-SMITH (GC 4543) (Staphylococcus sp.; strain GC 4543) | MIC Staphylococcus aureus (GC 4544) (Staphylococcus sp.; strain GC 4544) | MIC Staphylococcus aureus (GC 4545) (Staphylococcus sp.; strain GC 4545)
16 µg/mL: MIC Escherichi coli (GC 4560) (Escherichia coli; strain GC 4560)
8 µg/mL: MIC Staphylococcus haemolyticus (GC 4546) (Staphylococcus sp.; strain GC 4546) | MIC Coagulase Negative Staphylococcus (GC 4547) (Staphylococcus sp.; strain GC 4547)
0.5 µg/mL: MIC Streptococcus pyogenes (GC 4563) (Streptococcus sp.; [1]) | MIC Streptococcus pyogenes (GC 4563) (Streptococcus sp.; strain GC 4563)
>64 µg/mL: MIC Escherichia coli (ATCC 25922) (Escherichia coli; strain ATCC 25922) | MIC Escherichia coli (GC 4559) (Escherichia coli; strain GC 4559)
<0.06 µg/mL: MIC Streptococcus agalactiae (GC 4564) (Streptococcus sp.; [1]) | MIC Streptococcus pneumoniae (ATCC 6301) (Streptococcus sp.; [1]) | MIC Streptococcus pneumoniae (GC 1894) (Streptococcus sp.; [1]) | MIC Streptococcus pneumoniae (GC 4565) (Streptococcus sp.; [1]) | MIC Streptococcus pneumoniae (ATCC 6301) (Streptococcus sp.; strain ATCC 6301) | MIC Streptococcus pneumoniae (GC 1894) (Streptococcus sp.; strain GC 1894) | MIC Streptococcus agalactiae (GC 4564) (Streptococcus sp.; strain GC 4564) | MIC Streptococcus pneumoniae (GC 4565) (Streptococcus sp.; strain GC 4565)
1 µg/mL: MIC Enterococcus faecalis (GC 4553) (Enterococcus sp.; [1]) | MIC Enterococcus faecalis (GC 4553) (Enterococcus sp.; strain GC 4553) | MIC Coagulase Negative Staphylococcus (GC 4549) (Staphylococcus sp.; strain GC 4549)
